Assay results taken from patent US20200323203A1, “SYNERGISTIC PESTICIDAL COMPOSITIONS AND METHODS FOR DELIVERY OF ACTIVE INGREDIENTS” (0903608 B.C. Ltd., priority 2017, published 2020).
Values after ≈ are worked out from the molar mass of the structure shown. Values joined by “and” are separate entries in the source; they are usually repeats but may differ in a detail not shown here. Identical values can stand only once.

Key:
[1] = physchem; details: aqueous with cosolvent or surfactant or cyclodextrin, kinetic from dmso stock
[2] = Solubility / effective solubilized concentration in 10% DMSO/90% PDB by HPLC; details: aqueous with cosolvent or surfactant or cyclodextrin, kinetic from dmso stock
[3] = system: Fusarium oxysporum; test: Synergistic Growth Inhibition Assay (MIC / FIC index), Fusarium oxysporum; assay type: cell-based; details: individual compound alone
Description: (§1) In some embodiments, the synergistic action between the pesticidal active ingredient, and the at least one C6-C10 (or alternatively C11 or C12) saturated or unsaturated aliphatic acid components of the pesticidal compositions according to embodiments of the present disclosure was tested using a Synergistic Growth Inhibition Assay, which is derived from and related to a checkerboard assay as is known in the art for testing of combinations of antimicrobial agents. In the Synergistic Growth Inhibition Assay used in accordance with some embodiments of the present disclosure, multiple dilutions of combinations of pesticidal active ingredient and at least one C6-C10 saturated or unsaturated aliphatic acid agents are tested in individual cells for inhibitory activity against a target pest or pathogenic organism. In one such embodiment, the combinations of pesticidal active ingredient and C6-C10 (or alternatively C11 or C12) saturated or unsaturated aliphatic acid agents may preferably be tested in decreasing concentrations. In a further such embodiment, the combinations of pesticidal active ingredient and C6-C10 (or alternatively C11 or C12) saturated or unsaturated aliphatic acid agents may be tested in increasing concentrations. These multiple combinations of the pesticidal active ingredient and at least one C6-C10 (or alternatively C11 or C12) saturated or unsaturated aliphatic acid agents may be prepared in 96-well microtiter plates. In one such embodiment, the Synergistic Growth Inhibition Assay then comprises rows which each contain progressively decreasing concentrations of the pesticidal active ingredient and one or more C6-C10 (or alternatively C11 or C12) saturated or unsaturated aliphatic acid agents to test for the MIC of the agents in combination at which growth of the target pest or pathogen is inhibited. Thus, each well of the microtiter plate is a unique combination of the two agents, at which inhibitory efficacy of the combination against the target pest or pathogen can be determined.
In one embodiment according to the present disclosure, for each row of microtiter cells in the Synergistic Growth Inhibition Assay, the FIC index is calculated from the lowest concentration of the pesticidal active ingredient and one or more C6-C10 saturated or unsaturated aliphatic acid agents necessary to inhibit growth of a target pest or pathogen. The FIC of each component is derived by dividing the concentration of the agent present in that well of the microtiter plate by the minimal inhibitory concentration (MIC) needed of that agent alone to inhibit growth of the target pest or pathogen. The FIC index is then the sum of these values for both agents in that well of the microtiter plate. The FIC index is calculated for each row as follows:
FICindex=MICa/MICA+MICb/MICB
Fractional inhibitory concentration indices may then used as measure of synergy. […] When the FIC index is equal to 1, the combination is additive.
Then, serial dilutions of these initial compositions in successive wells in the row of the microtiter plate were used to assay the pesticidal composition under the same conditions to determine the concentration of the composition combining the two agents corresponding to the microtiter well in which growth inhibition of the target pest or organism ceases. […]

[4] = system: Botrytis cinerea; test: Synergistic Growth Inhibition Assay (MIC / FIC index), Botrytis cinerea; assay type: cell-based
Description: as §1, with “In one such embodiment, the Synergistic Growth Inhibition Assay then comprises rows which each contain progressively decreasing concentrations of the pesticidal active ingredient and one or more C6-C10 (or alternatively C11 or C12) saturated or unsaturated aliphatic acid agents to test for the MIC of the agents in combination at which growth of the target pest or pathogen is inhibited.” left out
(§2) In one embodiment according to the present disclosure, for each row of microtiter cells in the Synergistic Growth Inhibition Assay, the FIC index is calculated from the lowest concentration of the pesticidal active ingredient and one or more C6-C10 saturated or unsaturated aliphatic acid agents necessary to inhibit growth of a target pest or pathogen. […] The FIC index is calculated for each row as follows: […]

[5] = system: Sclerotinia sclerotiorum; test: Synergistic Growth Inhibition Assay (MIC / FIC index), Sclerotinia sclerotiorum; assay type: cell-based
Description: as §1, with “In one such embodiment, the Synergistic Growth Inhibition Assay then comprises rows which each contain progressively decreasing concentrations of the pesticidal active ingredient and one or more C6-C10 (or alternatively C11 or C12) saturated or unsaturated aliphatic acid agents to test for the MIC of the agents in combination at which growth of the target pest or pathogen is inhibited.” left out
as §2

[6] = effective solubilized concentration of working stock solution, DMSO stock diluted 10-fold in PDB, verified by HPLC
[7] = 10% DMSO/90% potato dextrose broth (PDB)
[8] = solubility, in 10% DMSO/90% PDB, HPLC

Work on `Fc1ccc([C@]2(Cn3cncn3)O[C@H]2c2ccccc2Cl)cc1` (racemic) [Epoxiconazole] yielded a solubility [1] of 30 µg/mL (≈ 91 µM).
Work on `COCC(=O)N(c1c(C)cccc1C)C(C)C(=O)OC` (centres unmarked) [Metalaxyl] yielded a solubility [2, 6] of 316 µg/mL (≈ 1130 µM).
Molecule `CCCC1COC(Cn2cncn2)(c2ccc(Cl)cc2Cl)O1` (centres unmarked) [Propiconazole] has a solubility [2, 7] of 89 µg/mL (≈ 260 µM).
In the case of `CCCCCC(=O)O` [Hexanoic acid, hexanoic acid], the “MIC (A) / MIC (B) of the compound used alone” value (from here on “MIC (A) / MIC (B)”) ([3]; incubation period of 48 hours) is reported as 156.2 µg/mL.
Molecule `COC(=O)N(OC)c1ccccc1COc1ccn(-c2ccc(Cl)cc2)n1` [Pyraclostrobin, pyraclostrobin] has a solubility [2, 6] of 15 µg/mL (≈ 38.7 µM) and a solubility [2, 8] of 15.4 µg/mL (≈ 39.7 µM).
With `CC(C)(C)C(O)(CCc1ccc(Cl)cc1)Cn1cncn1` (centres unmarked) [Tebuconazole] the solubility [2, 7] was 450 µg/mL (≈ 1460 µM).
For `C/C=C/C=C/C(=O)[O-].[K+]` [(2E,4E)-2,4-hexadienoic acid, potassium salt], the “MIC (A) / MIC (B)” value ([3]; 24 hour incubation) was 625 µg/mL.
For `CCCCCCCCCC(=O)[O-].[K+]` [Decanoic acid, potassium salt, decanoic acid, potassium salt], the “MIC (A) / MIC (B)” value ([3]; 24 hour incubation) was 78.12 µg/mL.
For `CCCCCCCCCCCC(=O)O` [Dodecanoic acid, dodecanoic acid], the “MIC (B)” value ([4]; Compound B alone, incubation 48 hours) was 50 µg/mL and the “MIC (B)” value ([5]; Compound B alone, incubation 7 days) was 50 µg/mL.
`N#Cc1c[nH]cc1-c1cccc2c1OC(F)(F)O2` [Fludioxonil, fludioxonil] showed a solubility [2, 6] of 21 µg/mL (≈ 84.6 µM) and a solubility [2, 8] of 15.4 µg/mL (≈ 62 µM).
Work on `C/C=C(/C)C(=O)O[C@H]1C[C@@H](OC(C)=O)[C@@]2(C)CO[C@H]3[C@H]4O[C@@H]5C[C@@H](c6ccoc6)C(C)=C5[C@@]4(C)[C@H](CC(=O)OC)[C@]1(C)[C@@H]32` [Salannin] yielded an MIC ([5]; Sclerotinia sclerotiorum, […], Compound A alone, incubation 7 days) of 500 µg/mL.
For `CO/C=C(/C(=O)OC)c1ccccc1Oc1cc(Oc2ccccc2C#N)ncn1` [Azoxystrobin], the “MIC (A) / MIC (B)” value ([3]; incubation period of 48 hours) was 75 µg/mL and 150 µg/mL, the “MIC (A) / MIC (B)” value ([4]; individual compound alone, incubation period of 48 hours) was 37.5 µg/mL and 75 µg/mL and the “MIC (A) / MIC (B)” value ([5]; individual compound alone, incubation period of 7 days) was 150 µg/mL.
In the case of `CCCCCCCCCC(=O)O` [Decanoic acid, decanoic acid], the “MIC (A) / MIC (B)” value ([3]; 24 hour incubation) is reported as 250 µg/mL and the MIC ([4]; Botrytis cinerea, 96 h, Compound B alone, incubation 4 days) is reported as 500 µg/mL.
For `N#Cc1c(Cl)c(Cl)c(Cl)c(C#N)c1Cl` [Chlorothalonil], the solubility [2, 6] was 2 µg/mL (≈ 7.52 µM).
